Test results from US20240327430A1 (Breakpoint Therapeutics GmbH, priority 2023, published 2024).

Target: truncated Polθ protein (Polθ-Hel containing the helicase domain (67-894)) (Homo sapiens (Human), UniProt O75417)
Assay: Polθ ATPase assay (Biological Assay 1, ADP-Glo luminescence)
Type: biochemical
Details: Table B; compounds of Experimental Part B, in vitro; read-out: Polθ ATPase assay IC50
Procedure, shortened: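 Polθ-Hel (0.5 nM) with 500 nM ssDNA oligo in pH 8.8 Tris buffer (5 mM MgCl2, 1 mM DTT) was preincubated with compound 30 min at 23 °C. The reaction ran 60 min after 60 μM ATP was added (stated as the added solution, not final). ADP formed was detected by ADP-Glo luminescence to derive IC50.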

truncated Polθ protein (Polθ-Hel containing the helicase domain (67-894)), sequence (O75417 67-894): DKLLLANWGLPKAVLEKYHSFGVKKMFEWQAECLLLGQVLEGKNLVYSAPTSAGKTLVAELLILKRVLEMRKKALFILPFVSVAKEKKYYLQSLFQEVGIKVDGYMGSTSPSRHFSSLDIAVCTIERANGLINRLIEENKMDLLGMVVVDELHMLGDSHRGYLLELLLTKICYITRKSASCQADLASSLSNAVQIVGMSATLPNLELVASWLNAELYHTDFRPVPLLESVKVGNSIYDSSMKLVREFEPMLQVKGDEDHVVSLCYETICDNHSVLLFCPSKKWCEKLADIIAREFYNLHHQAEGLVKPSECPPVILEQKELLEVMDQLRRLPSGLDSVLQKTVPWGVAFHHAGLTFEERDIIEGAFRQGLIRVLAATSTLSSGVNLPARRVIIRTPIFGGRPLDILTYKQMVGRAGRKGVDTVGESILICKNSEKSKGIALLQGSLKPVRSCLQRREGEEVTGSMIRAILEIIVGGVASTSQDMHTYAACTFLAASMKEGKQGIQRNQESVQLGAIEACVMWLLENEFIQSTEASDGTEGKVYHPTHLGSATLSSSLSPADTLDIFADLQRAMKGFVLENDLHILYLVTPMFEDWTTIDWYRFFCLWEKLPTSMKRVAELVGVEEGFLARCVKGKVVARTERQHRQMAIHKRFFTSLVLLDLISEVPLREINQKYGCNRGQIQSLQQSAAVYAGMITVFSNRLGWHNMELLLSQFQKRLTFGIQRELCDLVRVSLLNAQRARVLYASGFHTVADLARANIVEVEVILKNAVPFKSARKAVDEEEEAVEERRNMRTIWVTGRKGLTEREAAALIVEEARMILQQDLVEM

IC50: < 100 nM
SMILES: COc1cnc(Cl)cc1-c1cc(C)ncc1C(=O)Nc1nc2cnc(OCC(C)(C)O)nc2s1 [Example 133, 2′-chloro-N-[5-(2-hydroxy-2-methylpropoxy)-[1,3]thiazolo[5,4-d]pyrimidin-2-yl]-5′-methoxy-6-methyl-[4,4′-bipyridine]-3-carboxamide]
